Laboratory results taken from patent publication US20070128669A1, “Serum-free expansion of cells in culture” (Institute for Chemical Genomics, priority 2005, published 2007).

Experiments:
C2C12 myoblasts = experiment: Differentiation of C2C12 myoblasts in growth medium; format: cell-based; conditions: 10 μM in growth medium
Experimental: FIG. 12. FIG. 12 illustrates that differentiation of C2C12 myoblasts was induced by 10 μM ICG-001 in growth medium, similar to differentiation medium.

CBP/β-catenin complex = biological target: T1, CBP/β-catenin complex (Mus musculus, UniProt P45481); experiment: Co-immunoprecipitation of β-catenin with CBP in P19 cells; format: cell-based; conditions: Wnt3a, 10 μM, 24 hours
T1 construct: endogenous in cells; host or cells: P19 cells (nuclear fraction)
T1 sequence (P45481 2-2441 limits assumed, one chain of several): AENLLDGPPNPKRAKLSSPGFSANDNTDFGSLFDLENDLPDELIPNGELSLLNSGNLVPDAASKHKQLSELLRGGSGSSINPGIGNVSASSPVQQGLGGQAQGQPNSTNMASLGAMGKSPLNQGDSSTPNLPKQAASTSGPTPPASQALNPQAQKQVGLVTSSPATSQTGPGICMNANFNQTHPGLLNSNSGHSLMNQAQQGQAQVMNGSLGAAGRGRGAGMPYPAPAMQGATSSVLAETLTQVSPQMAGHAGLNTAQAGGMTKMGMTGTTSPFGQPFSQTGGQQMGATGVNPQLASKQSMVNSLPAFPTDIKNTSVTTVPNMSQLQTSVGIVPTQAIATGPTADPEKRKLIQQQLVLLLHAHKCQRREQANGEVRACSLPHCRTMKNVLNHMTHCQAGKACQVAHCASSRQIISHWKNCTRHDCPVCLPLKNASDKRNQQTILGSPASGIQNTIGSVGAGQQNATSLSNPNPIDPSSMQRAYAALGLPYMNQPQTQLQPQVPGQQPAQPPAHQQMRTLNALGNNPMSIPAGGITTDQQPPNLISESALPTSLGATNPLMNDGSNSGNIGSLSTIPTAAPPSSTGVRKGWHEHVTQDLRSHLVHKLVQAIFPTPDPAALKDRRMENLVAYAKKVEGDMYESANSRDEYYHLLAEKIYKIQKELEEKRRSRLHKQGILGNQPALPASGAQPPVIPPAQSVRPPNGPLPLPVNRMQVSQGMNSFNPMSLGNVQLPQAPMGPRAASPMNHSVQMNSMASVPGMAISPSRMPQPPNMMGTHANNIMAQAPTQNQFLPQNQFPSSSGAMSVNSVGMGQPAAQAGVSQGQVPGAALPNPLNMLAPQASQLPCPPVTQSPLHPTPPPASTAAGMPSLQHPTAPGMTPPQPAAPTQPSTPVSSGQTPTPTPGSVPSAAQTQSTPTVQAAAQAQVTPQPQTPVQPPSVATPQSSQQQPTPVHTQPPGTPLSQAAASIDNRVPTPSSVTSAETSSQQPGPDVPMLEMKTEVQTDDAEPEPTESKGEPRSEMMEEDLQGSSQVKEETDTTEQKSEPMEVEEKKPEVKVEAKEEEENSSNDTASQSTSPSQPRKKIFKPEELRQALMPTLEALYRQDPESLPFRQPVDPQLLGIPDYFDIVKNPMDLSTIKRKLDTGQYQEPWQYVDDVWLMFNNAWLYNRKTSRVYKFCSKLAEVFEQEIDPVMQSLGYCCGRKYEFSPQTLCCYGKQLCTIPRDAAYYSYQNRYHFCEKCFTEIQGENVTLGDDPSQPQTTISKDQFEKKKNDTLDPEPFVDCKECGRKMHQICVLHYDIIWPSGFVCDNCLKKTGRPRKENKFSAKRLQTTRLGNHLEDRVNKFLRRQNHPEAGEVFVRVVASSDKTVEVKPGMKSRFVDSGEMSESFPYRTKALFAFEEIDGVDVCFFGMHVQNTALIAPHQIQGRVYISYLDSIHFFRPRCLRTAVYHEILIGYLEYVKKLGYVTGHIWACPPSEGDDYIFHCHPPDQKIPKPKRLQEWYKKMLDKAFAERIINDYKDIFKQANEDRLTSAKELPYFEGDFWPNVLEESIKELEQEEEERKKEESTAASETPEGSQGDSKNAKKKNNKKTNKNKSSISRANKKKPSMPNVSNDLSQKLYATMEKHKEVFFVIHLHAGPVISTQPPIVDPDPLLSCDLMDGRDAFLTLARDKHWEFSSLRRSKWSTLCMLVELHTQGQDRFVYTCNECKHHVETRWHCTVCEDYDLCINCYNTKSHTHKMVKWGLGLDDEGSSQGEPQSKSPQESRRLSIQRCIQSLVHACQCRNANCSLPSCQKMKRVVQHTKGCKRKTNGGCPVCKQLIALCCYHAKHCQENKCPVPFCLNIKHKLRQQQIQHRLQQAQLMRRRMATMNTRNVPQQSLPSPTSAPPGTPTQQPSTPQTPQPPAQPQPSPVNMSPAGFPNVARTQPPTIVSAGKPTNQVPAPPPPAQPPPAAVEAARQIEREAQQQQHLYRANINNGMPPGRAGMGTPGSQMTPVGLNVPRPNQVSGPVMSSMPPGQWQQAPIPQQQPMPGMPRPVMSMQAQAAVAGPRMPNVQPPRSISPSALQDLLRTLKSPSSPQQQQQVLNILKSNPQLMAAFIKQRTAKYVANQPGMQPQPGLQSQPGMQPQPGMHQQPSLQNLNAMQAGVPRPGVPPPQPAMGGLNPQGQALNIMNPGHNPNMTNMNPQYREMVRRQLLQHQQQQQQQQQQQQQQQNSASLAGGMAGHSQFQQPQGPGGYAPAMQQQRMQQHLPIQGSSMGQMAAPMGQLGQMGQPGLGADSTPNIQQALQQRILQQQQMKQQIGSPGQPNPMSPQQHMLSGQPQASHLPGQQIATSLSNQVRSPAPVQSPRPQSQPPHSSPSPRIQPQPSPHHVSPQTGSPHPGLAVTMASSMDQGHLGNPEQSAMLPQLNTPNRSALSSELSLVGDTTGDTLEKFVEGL
Experimental: (§1) Co-immunoprecipitation of β-catenin with CBP or p300 in P19 cells. Co-immunoprecipitation was performed as described in (27). Briefly, P19 cells were treated with 10 μM ICG-001 or 10 μM IQ-1 (control DMSO was 0.025%) for 24 hours, after which they were washed and lysed […]. Nuclear fraction was isolated and precleared with antibodies to CBP(A-22) or p300(N-15). β-catenin was detected using a mouse monoclonal antibody (Becton Dickinson) at a dilution of 1:5000.

p300/β-catenin complex = experiment: Co-immunoprecipitation of β-catenin with p300 in P19 cells; format: cell-based; conditions: Wnt3a, 10 μM, 24 hours
Experimental: as §1

[1] = test system: Nanog gene expression in ESCs; experiment: Real-time RT-PCR for Nanog in feeder-free ESCs; format: cell-based, mouse; conditions: feeder-free ESCs; IQ-1 4 μg/ml or LIF 1000 U/ml, 21 hrs
Experimental: FIG. 2. […] Real-time RT-PCR for Nanog was performed. The control expression level of Nanog at day 0 was set at 1. FIG. 2B, removal of IQ-1 decreases Nanog gene expression in ESCs. IQ-1 was removed from ESCs which had been cultured under feeder-free system and in the presence of IQ-1 (4 μg/ml), for three days. At the end of this period, mRNA was isolated and real-time RT-PCR was performed to assay for Nanog gene expression. FIG. 2C, effects of IQ-1 were not mediated through Stat3 signaling pathway as judged by luciferase reporter assay. Feeder-free ESCs, transfected with the pSTAT3-TA-Luc reporter, were exposed to IQ-1 at the indicated doses, or LIF. All error bars represent mean±SD.
Real-time RT-PCR. Total RNA was isolated and reverse-transcribed using SuperScript III (Invitrogen). Real-time RT-PCR (Sybr Green; BioRad) was performed using with the gene-specific primers: […]

Stat3 signaling pathway = experiment: pSTAT3-TA-Luc luciferase reporter assay in ESCs; format: cell-based, mouse; conditions: 24 hours exposure
Experimental: Transfection and Luciferase assay. ESCs were cultured in 96-well cell culture dishes coated with a 0.1% aqueous gelatin solution and transfected with 0.2 μg/well of pSTAT3-TA-Luc (CLONTECH), using Lipofectamine 2000 (Invitrogen). After 6 hours, cells were washed and exposed to either IQ-1 at the indicated doses, or LIF, for 24 hours. Transfection efficiencies were normalized with pRL-null luciferase plasmid. Luciferase assays were performed with the DUAL-Luciferase Reporter Assay System (Promega).

ESCs = experiment: Long term feeder-free culture of ESCs in serum-free (15% KSR) media; format: cell-based, mouse
Experimental: FIG. 7. […] ESCs were cultured in 15% KSR, 4 μg/ml of IQ-1 and 100 ng/ml Wnt3a. ESCs were passaged 2-3 times per week at 1×10^5-1×10^6 cells per 6 cm dish and cells were counted.
FIG. 8. […] AP activity of ESCs cultured for 7 days in IQ-1 containing media supplemented with 15% FCS or 15% KSR. […] (Error bars represent ±S.D.)
FIG. 9. […] Over the 42-day culture period, ESCs cultured in the media in the presence of IQ-1 and Wnt3a maintain expression of the pluripotency markers, (a) Nanog, (b) Oct3/4 and (c) Rex-1. The expression level on day 0 was set as 1.
Cell culture. ESCs, D3ES (ATCC CRL-1934) were maintained on Mitomycin C treated MEFs in mouse ESC medium containing DMEM (Invitrogen) supplemented with 15% FBS (Invitrogen), 0.1 mM MEM nonessential amino acids (Invitrogen), 0.1 mM 2-mercaptoethanol (Sigma), 2 mM L-glutamine (Invitrogen) and 1,000 U/ml LIF (CHEMICON). To remove MEFs, cells were collected by trypsinization and plated on gelatin-coated culture dishes for 20 min. Non-adherent cells consisting mainly of ESCs were replated on gelatin-coated culture dishes again. Non-adherent cells were used for further experiments. P19 cells were cultured according to conditions recommended by the ATCC. Cells were incubated at 37° C. in a 5% CO2 incubator. Purified Wnt3a was purchased (R&D Systems).

O=C1[C@H](Cc2ccc(O)cc2)N2C(=O)CCN(C(=O)NCc3ccccc3)[C@H]2CN1Cc1cccc2ccccc12 [ICG-001, reference compound]
differentiation of C2C12 myoblasts (C2C12 myoblasts): induced the differentiation of C2C12 myoblasts
relative amount of β-catenin associated with CBP (CBP/β-catenin complex): at the expense of the CBP/β-catenin interaction
p300/β-catenin interaction (p300/β-catenin complex): significantly enhanced the p300/β-catenin interaction

LIF: cytokine leukemia inhibitory factor (CHEMICON)
Nanog expression [1]: only slightly increased Nanog levels
Stat3/luciferase expression (Stat3 signaling pathway): elicited a significant response

B1: Wnt3a: purified Wnt3a protein purchased from R&D Systems (protein, UniProt P56704 19-352, looked up)
Protein Wnt-3a: SYPIWWSLAVGPQYSSLGSQPILCASIPGLVPKQLRFCRNYVEIMPSVAEGIKIGIQECQHQFRGRRWNCTTVHDSLAIFGPVLDKATRESAFVHAIASAGVAFAVTRSCAEGTAAICGCSSRHQGSPGKGWKWGGCSEDIEFGGMVSREFADARENRPDARSAMNRHNNEAGRQAIASHMHLKCKCHGLSGSCEVKTCWWSQPDFRAIGDFLKDKYDSASEMVVEKHRESRGWVETLRPRYTYFKVPTERDLVYYEASPNFCEPNPETGSFGTRDRTCNVSSHGIDGCDLLCCGRGHNARAERRREKCRCVFHWCCYVSCQECTRVYDVHTCK
AP activity of ESCs on addition of Wnt3a to IQ-1 containing 15% KSR media (ESCs; 7 days, IQ-1 containing media, 15% KSR): increases AP activity
ESC proliferation, Wnt3a alone (ESCs; KSR media): induced proliferation
expression of stem cell markers Oct4, Nanog, Rex1, Wnt3a alone (ESCs; KSR media): not sufficient to maintain the expression
maintenance of undifferentiated status of ESCs, agent alone (ESCs; KSR media, single agent): Neither Wnt3a nor IQ-1 alone was sufficient
